The Kinase Knowledgebase extract (Sharma et al. 2016)

Key:
MAPK14 (human) [1] = biological target: MAPK14 (human) (UniProt Q16539); assay: Inhibition of IL-1beta Production from LPS Stimulated PBMC
MAPK14 (human) [2] = biological target: MAPK14 (human) (UniProt Q16539); assay: Inhibition of TNF-alpha Production from LPS Stimulated PBMC
MAPK14 (human) [3] = biological target: MAPK14 (human) (UniProt Q16539); assay: Inhibition of TNF-alpha Release in LPS Stimulated Whole Blood Culture; settings: blood cells
MAPK14 (human) [4] = biological target: MAPK14 (human) (UniProt Q16539); assay: Inhibition of IL-1 beta Release from LPS Stimulated Whole Blood Culture; settings: blood cells
MAPK14 (human) [5] = biological target: MAPK14 (human) (UniProt Q16539); assay: Inhibition of MAPK14 Kinase Activity

Sequence of MAPK14 (human) (Q16539 whole entry, looked up): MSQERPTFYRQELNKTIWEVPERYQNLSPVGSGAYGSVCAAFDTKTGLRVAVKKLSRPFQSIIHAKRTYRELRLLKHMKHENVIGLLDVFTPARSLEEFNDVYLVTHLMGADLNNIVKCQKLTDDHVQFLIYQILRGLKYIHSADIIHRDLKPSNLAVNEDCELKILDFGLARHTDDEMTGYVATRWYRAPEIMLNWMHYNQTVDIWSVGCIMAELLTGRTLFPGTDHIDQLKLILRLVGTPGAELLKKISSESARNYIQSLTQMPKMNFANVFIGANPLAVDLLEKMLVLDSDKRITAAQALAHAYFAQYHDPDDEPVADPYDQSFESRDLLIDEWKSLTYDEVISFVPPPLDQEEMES

Row | SMILES | IC50 (MAPK14 (human) [1]) | IC50 (MAPK14 (human) [2]) | IC50 (MAPK14 (human) [3]) | IC50 (MAPK14 (human) [4]) | IC50 (MAPK14 (human) [5])
1 | CSc1nc(-c2ccc(F)cc2)c(-c2ccnc(NCc3ccc(Cl)c(Cl)c3)c2)[nH]1 | 230 nM | 720 nM |  |  | 
2 | CSc1nc(-c2ccc(F)cc2)c(-c2ccnc(F)c2)[nH]1 | 300 nM | 2800 nM |  |  | 
3 | CSc1nc(-c2ccc(F)cc2)c(-c2cc[nH]c(=O)c2)[nH]1 | 500 nM | 3100 nM |  |  | 
4 | C[S+]([O-])c1ccc(CSc2nc(-c3ccc(F)cc3)c(-c3ccnc(F)c3)[nH]2)cc1 (centres undefined) | 2450 nM | 6900 nM |  |  | 
5 | Fc1ccc(-c2nc(SCc3ccccc3)[nH]c2-c2ccnc(Cl)c2)cc1 | 1800 nM | 60000 nM |  |  | 
6 | Fc1ccc(-c2nc(SCc3ccccc3)[nH]c2-c2ccnc(F)c2)cc1 | 2900 nM | 40500 nM |  |  | 
7 | CSc1nc(-c2ccc(F)cc2)c(-c2ccnc(OC(C)C)c2)[nH]1 | 2700 nM | 4600 nM | 7200 nM | 2200 nM | 
8 | Fc1ccc(-c2nc(SCc3ccccc3)[nH]c2-c2ccnc(NCc3ccccc3)c2)cc1 | 200 nM | 3200 nM |  |  | 
9 | C[S+]([O-])c1ccc(CSc2nc(-c3ccc(F)cc3)c(-c3ccnc(NCc4ccccc4)c3)[nH]2)cc1 (centres undefined) | 470 nM | 2000 nM |  |  | 
10 | C[S+]([O-])c1ccc(CSc2nc(-c3ccc(F)cc3)c(-c3ccnc(Cl)c3)[nH]2)cc1 (centres undefined) | 2100 nM | 12000 nM |  |  | 
11 | COc1ccc(CNc2cc(-c3[nH]c(SCc4ccccc4)nc3-c3ccc(F)cc3)ccn2)cc1 | 180 nM | 21000 nM |  |  | 
12 | CSc1nc(-c2ccc(F)cc2)c(-c2ccnc(Cl)c2)[nH]1 | 350 nM | 2200 nM |  |  | 

Stronger by IC50 (MAPK14 (human) [1]), values ahead:

Row | IC50 (MAPK14 (human) [1]) | IC50 (MAPK14 (human) [2]) | IC50 (MAPK14 (human) [3]) | IC50 (MAPK14 (human) [4]) | IC50 (MAPK14 (human) [5]) | SMILES
13 | 45 nM | 2700 nM |  |  |  | CC(Nc1cc(-c2[nH]c(SCc3ccccc3)nc2-c2ccc(F)cc2)ccn1)c1ccccc1 (centres undefined)
14 | 150 nM | 500 nM | 14800 nM | 13300 nM |  | CSc1nc(-c2ccc(F)cc2)c(-c2ccnc(NCc3ccc(Cl)cc3)c2)[nH]1
15 | 40 nM | 910 nM | 10000 nM | 15700 nM | 270 nM | CC(Nc1cc(-c2[nH]c(SCc3ccc([S+](C)[O-])cc3)nc2-c2ccc(F)cc2)ccn1)c1ccccc1 (centres undefined)
16 | 85 nM | 670 nM | 17300 nM | 22300 nM |  | CSc1nc(-c2ccc(F)cc2)c(-c2ccnc(NCc3ccc(C)cc3)c2)[nH]1
17 | 150 nM | 1900 nM |  |  |  | COc1cc(-c2[nH]c(SC)nc2-c2ccc(F)cc2)ccn1
18 | 30 nM | 340 nM |  |  |  | CSc1nc(-c2ccc(F)cc2)c(-c2ccnc(Nc3ccccc3)c2)[nH]1
19 | 108 nM | 630 nM |  |  | 650 nM | CSc1nc(-c2ccc(F)cc2)c(-c2ccnc(NCc3ccccc3)c2)[nH]1
20 | 56 nM | 640 nM |  |  |  | COc1ccc(CNc2cc(-c3[nH]c(SC)nc3-c3ccc(F)cc3)ccn2)cc1
21 | 31 nM | 350 nM | 14900 nM | 17100 nM |  | CSc1nc(-c2ccc(F)cc2)c(-c2ccnc(NCCc3ccccc3)c2)[nH]1
